Tested on: K12877-001-R-J1-PDC complex spheroid viability
Test: Anticancer human tumor K12877-001-R-J1-PDC patient-derived lung adenocarcinoma cell line growth inhibition [RAS]
Details: for IC50: curve of first compound; for viability, T/C: stronger effect = lower value; active means viability on the fitted dose curve at most 10% of control; inactive means the rest
Procedure, shortened: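 Multi-cell-type spheroids: tumor cells plus HUVEC endothelial cells and mesenchymal stem cells. RAS-pathway inhibitors were combined with targeted agents, each dosed in half-log steps down from clinical Cmax, or from 10 microM when Cmax was unknown.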
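Further: spheroids exposed to agents for one week before readout.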
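Wherever viability, T/C is given: tumour cells co-cultured with HUVEC and mesenchymal stem cells in spheroids.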

CC(=O)OC12COC1CC(O)C1(C)C(=O)C(O)C3=C(C)C(OC(=O)C(O)C(NC(=O)OC(C)(C)C)c4ccccc4)CC(O)(C(OC(=O)c4ccccc4)C21)C3(C)C (centres undefined) + CCn1c(-c2cccnc2C(C)OC)c2c3cc(ccc31)N1CCOC(CC(NC(=O)C(C(C)C)N(C)C(=O)C3(F)CCN(C(=O)C#CC(C)(C)N(C)C)CC3)C(=O)N3CCCC(N3)C(=O)OCC(C)(C)C2)C1
< 31.6 nM: IC50 (second compound 0.000949 µM) | IC50 (second compound 0.003 µM) | IC50 (second compound 0.00949 µM) | IC50 (second compound 0.03 µM) | IC50 (second compound 0.0949 µM) | IC50 (second compound 0.3 µM)
active: viability, T/C (second compound 0.000949 µM, first compound 0.0316 µM) 4.23% | viability, T/C (second compound 0.000949 µM, first compound 0.1 µM) 2.96% | viability, T/C (second compound 0.000949 µM, first compound 0.316 µM) 3.64% | viability, T/C (second compound 0.000949 µM, first compound 1 µM) 3.51% | viability, T/C (second compound 0.000949 µM, first compound 3.16 µM) 3.12% | viability, T/C (second compound 0.000949 µM, first compound 10 µM) 6.19% | viability, T/C (second compound 0.003 µM, first compound 0.0316 µM) 4.57% | viability, T/C (second compound 0.003 µM, first compound 0.1 µM) 3.08% | viability, T/C (second compound 0.003 µM, first compound 0.316 µM) 3.09% | viability, T/C (second compound 0.003 µM, first compound 1 µM) 2.71% | viability, T/C (second compound 0.003 µM, first compound 3.16 µM) 3.37% | viability, T/C (second compound 0.003 µM, first compound 10 µM) 6.21% | viability, T/C (second compound 0.00949 µM, first compound 0.0316 µM) 3.31% | viability, T/C (second compound 0.00949 µM, first compound 0.1 µM) 2.69% | viability, T/C (second compound 0.00949 µM, first compound 0.316 µM) 2.28% | viability, T/C (second compound 0.00949 µM, first compound 1 µM) 2.12% | viability, T/C (second compound 0.00949 µM, first compound 3.16 µM) 2.87% | viability, T/C (second compound 0.00949 µM, first compound 10 µM) 5.23% | viability, T/C (second compound 0.03 µM, first compound 0.0316 µM) 3.32% | viability, T/C (second compound 0.03 µM, first compound 0.1 µM) 2.79% | viability, T/C (second compound 0.03 µM, first compound 0.316 µM) 2.34% | viability, T/C (second compound 0.03 µM, first compound 1 µM) 2.42% | viability, T/C (second compound 0.03 µM, first compound 3.16 µM) 2.51% | viability, T/C (second compound 0.03 µM, first compound 10 µM) 5.78% | viability, T/C (second compound 0.0949 µM, first compound 0.0316 µM) 2.88% | viability, T/C (second compound 0.0949 µM, first compound 0.1 µM) 2.42% | viability, T/C (second compound 0.0949 µM, first compound 0.316 µM) 2.13% | viability, T/C (second compound 0.0949 µM, first compound 1 µM) 2.21% | viability, T/C (second compound 0.0949 µM, first compound 3.16 µM) 2.11% | viability, T/C (second compound 0.0949 µM, first compound 10 µM) 4.05% | viability, T/C (second compound 0.3 µM, first compound 0.0316 µM) 3.02% | viability, T/C (second compound 0.3 µM, first compound 0.1 µM) 2.23% | viability, T/C (second compound 0.3 µM, first compound 0.316 µM) 2.13% | viability, T/C (second compound 0.3 µM, first compound 1 µM) 1.55% | viability, T/C (second compound 0.3 µM, first compound 3.16 µM) 1.93% | viability, T/C (second compound 0.3 µM, first compound 10 µM) 3.39%

CCc1c2c(nc3ccc(O)cc13)-c1cc3c(c(=O)n1C2)COC(=O)[C@]3(O)CC + CCn1c(-c2cccnc2C(C)OC)c2c3cc(ccc31)N1CCOC(CC(NC(=O)C(C(C)C)N(C)C(=O)C3(F)CCN(C(=O)C#CC(C)(C)N(C)C)CC3)C(=O)N3CCCC(N3)C(=O)OCC(C)(C)C2)C1
2.99 nM: IC50 (second compound 0.00949 µM)
4.24 nM: IC50 (second compound 0.000949 µM)
3.18 nM: IC50 (second compound 0.003 µM)
1.63 nM: IC50 (second compound 0.3 µM)
2.98 nM: IC50 (second compound 0.03 µM)
inactive: viability, T/C (second compound 0.000949 µM, first compound 0.000949 µM) 89.5% | viability, T/C (second compound 0.000949 µM, first compound 0.003 µM) 68.3% | viability, T/C (second compound 0.003 µM, first compound 0.000949 µM) 62.1% | viability, T/C (second compound 0.003 µM, first compound 0.003 µM) 52.2% | viability, T/C (second compound 0.00949 µM, first compound 0.000949 µM) 78.3% | viability, T/C (second compound 0.00949 µM, first compound 0.003 µM) 49.9% | viability, T/C (second compound 0.03 µM, first compound 0.000949 µM) 78.1% | viability, T/C (second compound 0.03 µM, first compound 0.003 µM) 49.9% | viability, T/C (second compound 0.0949 µM, first compound 0.000949 µM) 75.5% | viability, T/C (second compound 0.0949 µM, first compound 0.003 µM) 47.4% | viability, T/C (second compound 0.3 µM, first compound 0.000949 µM) 62.8% | viability, T/C (second compound 0.3 µM, first compound 0.003 µM) 35.8%
active: viability, T/C (second compound 0.000949 µM, first compound 0.00949 µM) 7.36% | viability, T/C (second compound 0.000949 µM, first compound 0.03 µM) 4.07% | viability, T/C (second compound 0.000949 µM, first compound 0.0949 µM) 2.52% | viability, T/C (second compound 0.000949 µM, first compound 0.3 µM) 1.41% | viability, T/C (second compound 0.003 µM, first compound 0.00949 µM) 8.47% | viability, T/C (second compound 0.003 µM, first compound 0.03 µM) 3.87% | viability, T/C (second compound 0.003 µM, first compound 0.0949 µM) 2.21% | viability, T/C (second compound 0.003 µM, first compound 0.3 µM) 1.33% | viability, T/C (second compound 0.00949 µM, first compound 0.00949 µM) 7.64% | viability, T/C (second compound 0.00949 µM, first compound 0.03 µM) 4.13% | viability, T/C (second compound 0.00949 µM, first compound 0.0949 µM) 2.66% | viability, T/C (second compound 0.00949 µM, first compound 0.3 µM) 1.35% | viability, T/C (second compound 0.03 µM, first compound 0.00949 µM) 7.8% | viability, T/C (second compound 0.03 µM, first compound 0.03 µM) 3.09% | viability, T/C (second compound 0.03 µM, first compound 0.0949 µM) 2.15% | viability, T/C (second compound 0.03 µM, first compound 0.3 µM) 1.08% | viability, T/C (second compound 0.0949 µM, first compound 0.00949 µM) 6.39% | viability, T/C (second compound 0.0949 µM, first compound 0.03 µM) 4.02% | viability, T/C (second compound 0.0949 µM, first compound 0.0949 µM) 2.14% | viability, T/C (second compound 0.0949 µM, first compound 0.3 µM) 1.27% | viability, T/C (second compound 0.3 µM, first compound 0.00949 µM) 5.11% | viability, T/C (second compound 0.3 µM, first compound 0.03 µM) 3.66% | viability, T/C (second compound 0.3 µM, first compound 0.0949 µM) 1.47% | viability, T/C (second compound 0.3 µM, first compound 0.3 µM) 1.32%
2.7 nM: IC50 (second compound 0.0949 µM)
